Key:
Tagia sp. = details: acute; duration: 14 days; mortality
Daphnia magna = details: chronic/long-term; duration: 21 days; reproduction
Apis mellifera = details: acute, mortality
Canidae = details: oral, Dog Other, clinical signs
Colinus virginianus = details: acute, oral, mortality
Coturnix japonica = details: reproduction developmental
Typhlodromus pyri = experiment: LR50; higher = less toxic; details: acute; duration: 14 days; mortality
Aphidius rhopalosiphi = experiment: LR50; higher = less toxic; details: acute; duration: 48 hours; mortality

`C[N+]1(C)CCCCC1.[Cl-]` [1,1-Dimethylpiperidinium chloride] was tested, and the LC50 (Tagia sp.) was 320 mg/kg, the NOEC (Daphnia magna) was 12.5 mg/L and the LD50 (Apis mellifera; dermal) was greater than 100 µg/piece. The LD50 (Apis mellifera; oral, unspecified) was greater than 107 µg/piece, the LD50 (Rattus norvegicus; acute, oral, mortality) was 200 mg/kg-day and the NOAEC (Rattus norvegicus; reproduction developmental) was 155 mg/kg-day. For the same compound, the NOAEL (Rattus norvegicus; reproduction developmental, mortality) was 30 mg/kg-day, the NOAEL (Canidae; chronic, duration: 12 months) was 19.9 mg/kg-day and the NOAEL (Canidae; subchronic, duration: 3 months) was 30.5 mg/kg-day. For the same compound, the LD50 (Colinus virginianus; diet) was greater than 1330 mg/kg-day, the LD50 (Colinus virginianus) was greater than 2000 mg/kg-day and the NOEC (Coturnix japonica) was 933 mg/kg-day. It also gave an LC50 (Oncorhynchus mykiss; acute, duration: 96 hours, mortality) greater than 100 µg/mL, an NOEC (Oncorhynchus mykiss; chronic/long-term, duration: 28 days, growth) of 100 mg/L and an LR50 (Typhlodromus pyri) of 1530 g/ha. It also gave an LR50 (Aphidius rhopalosiphi) of 1370 g/ha.

Source: EPA's ToxValDB 9.5 (doi:10.2903/j.efsa.2008.146r)
